# Results taken from ChEMBL document CHEMBL6127013, “A chemical platform for the efficient screening of arylazopyrazole-based photoswitchable CENP-E inhibitors using mild cyclization reactions” (Bioorg Med Chem Lett, 2024).
# Activity calls are given as the source filed them. No cut-off for these calls is given here.
# Legend:
# [1] = test system: HeLa; test: Antiproliferative activity against human HeLa cells assessed as inhibition of cell proliferation; format: functional, cell-based
# [2] = target: T1, Centromere-associated protein E (Homo sapiens, UniProt Q02224); test: Inhibition of CENP-E (unknown origin) ATPase activity in presence 365 nm of light illumination
# T1 sequence (Q02224 whole entry): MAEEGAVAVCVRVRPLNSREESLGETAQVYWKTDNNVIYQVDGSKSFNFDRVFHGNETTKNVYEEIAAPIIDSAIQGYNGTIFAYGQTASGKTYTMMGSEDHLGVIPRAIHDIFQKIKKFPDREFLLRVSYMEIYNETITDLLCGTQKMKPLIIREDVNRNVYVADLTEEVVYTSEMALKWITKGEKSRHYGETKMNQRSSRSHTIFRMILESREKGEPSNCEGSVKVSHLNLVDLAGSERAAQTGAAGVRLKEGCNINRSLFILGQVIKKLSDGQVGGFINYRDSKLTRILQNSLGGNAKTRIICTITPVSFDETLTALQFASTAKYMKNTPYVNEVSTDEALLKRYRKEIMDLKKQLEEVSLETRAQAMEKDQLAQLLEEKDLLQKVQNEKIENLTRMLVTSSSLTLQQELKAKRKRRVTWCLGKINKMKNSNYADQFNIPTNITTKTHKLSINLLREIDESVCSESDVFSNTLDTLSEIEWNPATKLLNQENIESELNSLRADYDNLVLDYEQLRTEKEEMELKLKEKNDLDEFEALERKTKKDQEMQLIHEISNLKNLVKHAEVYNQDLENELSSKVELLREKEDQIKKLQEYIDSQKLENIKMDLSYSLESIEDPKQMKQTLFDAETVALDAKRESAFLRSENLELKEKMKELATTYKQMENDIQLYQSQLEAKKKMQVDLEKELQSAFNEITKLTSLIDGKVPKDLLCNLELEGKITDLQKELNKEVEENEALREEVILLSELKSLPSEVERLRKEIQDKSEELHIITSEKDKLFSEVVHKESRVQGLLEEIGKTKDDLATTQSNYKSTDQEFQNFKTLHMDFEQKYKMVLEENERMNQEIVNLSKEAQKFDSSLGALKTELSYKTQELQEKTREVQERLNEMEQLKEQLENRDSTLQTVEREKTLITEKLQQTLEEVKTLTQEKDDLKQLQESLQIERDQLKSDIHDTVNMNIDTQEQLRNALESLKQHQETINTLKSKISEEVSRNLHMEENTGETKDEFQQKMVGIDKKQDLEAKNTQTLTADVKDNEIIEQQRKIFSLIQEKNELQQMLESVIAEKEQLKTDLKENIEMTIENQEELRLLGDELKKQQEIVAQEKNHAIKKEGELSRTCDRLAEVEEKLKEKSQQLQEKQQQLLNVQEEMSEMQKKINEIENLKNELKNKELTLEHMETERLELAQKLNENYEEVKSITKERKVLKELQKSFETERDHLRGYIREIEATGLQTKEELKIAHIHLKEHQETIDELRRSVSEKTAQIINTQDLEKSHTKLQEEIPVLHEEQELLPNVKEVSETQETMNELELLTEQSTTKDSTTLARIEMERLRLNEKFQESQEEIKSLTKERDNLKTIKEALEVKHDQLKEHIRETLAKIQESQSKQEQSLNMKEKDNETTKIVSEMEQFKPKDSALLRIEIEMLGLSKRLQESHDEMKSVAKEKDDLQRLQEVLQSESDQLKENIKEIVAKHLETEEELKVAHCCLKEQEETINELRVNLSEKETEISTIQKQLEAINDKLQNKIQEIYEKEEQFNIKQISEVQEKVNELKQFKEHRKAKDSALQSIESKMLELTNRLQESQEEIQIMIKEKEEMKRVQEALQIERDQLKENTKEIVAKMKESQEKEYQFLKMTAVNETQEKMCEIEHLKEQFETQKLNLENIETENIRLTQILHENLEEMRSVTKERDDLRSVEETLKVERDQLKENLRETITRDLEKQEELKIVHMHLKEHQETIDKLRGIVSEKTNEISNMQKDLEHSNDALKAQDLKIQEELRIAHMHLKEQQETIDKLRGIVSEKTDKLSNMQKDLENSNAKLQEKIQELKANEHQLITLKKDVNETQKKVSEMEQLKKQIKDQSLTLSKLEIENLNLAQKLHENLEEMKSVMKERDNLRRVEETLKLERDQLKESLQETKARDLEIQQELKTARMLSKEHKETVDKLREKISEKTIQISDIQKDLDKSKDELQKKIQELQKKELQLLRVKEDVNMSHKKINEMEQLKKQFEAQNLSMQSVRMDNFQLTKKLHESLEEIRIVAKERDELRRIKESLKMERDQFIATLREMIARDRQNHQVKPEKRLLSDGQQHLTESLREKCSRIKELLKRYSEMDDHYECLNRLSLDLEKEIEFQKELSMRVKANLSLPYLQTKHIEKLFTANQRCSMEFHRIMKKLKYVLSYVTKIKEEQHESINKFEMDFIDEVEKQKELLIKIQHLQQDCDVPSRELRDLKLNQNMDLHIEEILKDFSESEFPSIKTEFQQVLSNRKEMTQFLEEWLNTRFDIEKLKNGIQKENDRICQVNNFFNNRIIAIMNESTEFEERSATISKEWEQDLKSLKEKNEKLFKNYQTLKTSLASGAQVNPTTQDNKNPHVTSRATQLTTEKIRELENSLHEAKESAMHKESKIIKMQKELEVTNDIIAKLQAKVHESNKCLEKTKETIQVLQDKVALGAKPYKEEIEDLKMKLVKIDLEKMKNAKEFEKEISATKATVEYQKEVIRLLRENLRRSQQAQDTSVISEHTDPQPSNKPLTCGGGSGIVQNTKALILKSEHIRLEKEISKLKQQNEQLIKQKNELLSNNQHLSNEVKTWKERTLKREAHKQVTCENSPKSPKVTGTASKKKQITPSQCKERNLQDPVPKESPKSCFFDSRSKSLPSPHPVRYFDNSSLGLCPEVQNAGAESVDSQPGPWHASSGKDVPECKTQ
# [3] = target: T1, Centromere-associated protein E; test: Inhibition of CENP-E (unknown origin) ATPase activity in absence of light illumination
# [4] = target: T1, Centromere-associated protein E; test: Inhibition of CENP-E in human HeLa cells assessed as misaligned chromosome at 1 uM incubated for 2 hrs by DAPI staining based assay; format: cell-based
IC50 [1] [µM],IC50 [2] [nM],IC50 [3] [nM],inhibition [4],SMILES
10,> 501,339,,CNC(=O)[C@H](Cc1ccc(/N=N/c2c(C)nn(-c3ccc(F)cc3F)c2C)cc1)NC(=O)c1ccc(OC(C)C)c(Cl)c1
10,151,245,,CNC(=O)[C@H](Cc1ccc(/N=N/c2c(C)nn(C(=N)N)c2C)cc1)NC(=O)c1ccc(OC(C)C)c(Cl)c1
> 10,417,240,,CNC(=O)[C@H](Cc1ccc(/N=N/c2c(C)nn(C3=NCCN3)c2C)cc1)NC(=O)c1ccc(OC(C)C)c(Cl)c1
0.2,195,12,,CNC(=O)[C@H](Cc1ccc(/N=N/c2c(C)nn(CCO)c2C)cc1)NC(=O)c1ccc(OC(C)C)c(Cl)c1
10,51.3,145,,CNC(=O)[C@H](Cc1ccc(/N=N/c2c(C)nn(C(N)=S)c2C)cc1)NC(=O)c1ccc(OC(C)C)c(Cl)c1
10,> 501,< 501,,CNC(=O)[C@H](Cc1ccc(/N=N/c2c(C)nn(-c3cccc4ccccc34)c2C)cc1)NC(=O)c1ccc(OC(C)C)c(Cl)c1
0.55,120,123,,CNC(=O)[C@H](Cc1ccc(/N=N/c2c(C)nn(C=O)c2C)cc1)NC(=O)c1ccc(OC(C)C)c(Cl)c1
> 10,> 501,380,,CNC(=O)[C@H](Cc1ccc(/N=N/c2c(C)nn(C(=O)OC)c2C)cc1)NC(=O)c1ccc(OC(C)C)c(Cl)c1
,97.7,105,,CNC(=O)[C@H](Cc1ccc(/N=N/c2c(C)nn(C3CCCCC3)c2C)cc1)NC(=O)c1ccc(OC(C)C)c(Cl)c1
> 10,> 501,> 501,,CNC(=O)[C@H](Cc1ccc(/N=N/c2c(C)n[nH]c2C)cc1)NC(=O)c1ccc(OC(C)C)c(Cl)c1
0.447,83.2,33.9,,CCCC(=O)n1nc(C)c(/N=N/c2ccc(C[C@H](NC(=O)c3ccc(OC(C)C)c(Cl)c3)C(=O)NC)cc2)c1C
> 10,129,204,,CNC(=O)[C@H](Cc1ccc(/N=N/c2c(C)nn(C(=O)c3ccccc3)c2C)cc1)NC(=O)c1ccc(OC(C)C)c(Cl)c1
> 10,> 501,204,,CNC(=O)[C@H](Cc1ccc(/N=N/c2c(C)nn(Cc3ccccc3)c2C)cc1)NC(=O)c1ccc(OC(C)C)c(Cl)c1
> 10,245,209,,CNC(=O)[C@H](Cc1ccc(/N=N/c2c(C)nn(C(C)=O)c2C)cc1)NC(=O)c1ccc(OC(C)C)c(Cl)c1
0.191,372,15.8,,CNC(=O)[C@H](Cc1ccc(/N=N/c2c(C)nn(C)c2C)cc1)NC(=O)c1ccc(OC(C)C)c(Cl)c1
,,,inactive,CNC(=O)[C@H](Cc1ccc(NN=C(C(C)=O)C(C)=O)cc1)NC(=O)c1ccc(OC(C)C)c(Cl)c1
> 10,158,123,,CNC(=O)[C@H](Cc1ccc(/N=N/c2c(C)nn(C(C)C)c2C)cc1)NC(=O)c1ccc(OC(C)C)c(Cl)c1
10,162,93.3,,CNC(=O)[C@H](Cc1ccc(/N=N/c2c(C)nn(-c3ccccn3)c2C)cc1)NC(=O)c1ccc(OC(C)C)c(Cl)c1
0.38,166,20,,CNC(=O)[C@H](Cc1ccc(/N=N/c2c(C)noc2C)cc1)NC(=O)c1ccc(OC(C)C)c(Cl)c1
0.457,129,15.1,,CNC(=O)[C@H](Cc1ccc(/N=N/c2c(C)nn(C(N)=O)c2C)cc1)NC(=O)c1ccc(OC(C)C)c(Cl)c1
